Data set [1] relates to primary AML patient blasts with FLT3 ITD and FLT3 D835Y mutation. To be noted: blasts incubated 3 days; patient relapsed after AC220; cited from earlier work.
Data set [2] relates to FLT3 ITD expressing Molm 14 cells. To be noted: cited from earlier work; for Percent Apoptosis: Molm 14.
Data set [3] deals with luciferase-expressing MV-411 cells. To be noted: 15 mg/kg intraperitoneally, male NSG mice, twice daily 2 days then once daily 2 days; p<0.01; cited from earlier work.
For a further data set, the target named is Src (Homo sapiens, UniProt P12931). The data set is described as follows: Inhibition of other RTKs (IC50). Format: biochemical.
The target of data set [4] is ABL1(T315I) nonphosphorylated (Homo sapiens, UniProt P00519, T315I).
Data set [5] deals with primary AML patient blast samples harboring the FLT3 ITD mutation. Particulars: samples from five patients, increasing concentrations, MTT; cited from earlier work.
Another data set addresses VEGFR-2 (Homo sapiens, UniProt P35968). The data set is described as follows: Inhibition of other RTKs (IC50). Format: biochemical.
The next data set has as its target TIE-2 (Homo sapiens, UniProt Q02763). The data set is described as follows: Inhibition of other RTKs (IC50). Format: biochemical.
In the next data set the test system is MV-411 FLT3 ITD cells. To be noted: combined with cytarabine in vitro; cited from earlier work.
The test system of data set [6] is primary AML patient blasts with FLT3 D835 mutation. To be noted: MTT assay, 3 day exposure; cited from earlier work.
The subject of another data set is FLT3-ITD MV411 cells. To be noted: crenolanib 0.1 uM for 5 minutes and 2 hours, […] radiolabeled cytarabine; cited from earlier work.
The subject of data set [7] is other kinases (VEGFR-2, FGFR-2, TIE-2, VEGFR, FGFR, EGFR, erbB2, src, Abl, Raf). The data set is described as follows: Selectivity relative to other kinases. The class given is biochemical. Particulars: at clinically achievable concentrations, e.g. VEGFR.
Data set [8] concerns the target wild type FLT3 receptor in HL60 (Homo sapiens, UniProt P36888). To be noted: cited from earlier work.
In the next data set the test system is Ba/F3 D835N. Particulars: text: viability, read-out: IC50 pFLT3; cited from earlier work.
For a further data set, the target named is EGFR (Homo sapiens, UniProt P00533). The data set is described as follows: Inhibition of other RTKs (IC50). The class given is biochemical.
In another data set the target is ABL1-nonphosphorylated (Homo sapiens, UniProt P00519).
The target in a further data set is ABL1-phosphorylated (Homo sapiens, UniProt P00519).
A further data set concerns the target erbB2 (Homo sapiens, UniProt P04626). In words: Inhibition of other RTKs (IC50). The class given is biochemical.
The subject of the next data set is Ba/F3 D835Y. To be noted: text: viability, read-out: IC50 pFLT3; cited from earlier work.
In data set [9] the target is ABL1(T315I) phosphorylated (Homo sapiens, UniProt P00519, T315I).
The next data set relates to Ba/F3 D835Y/ITD. Particulars: text: viability, read-out: IC50 pFLT3; cited from earlier work.
The target in another data set is FGFR-2 (Homo sapiens, UniProt P21802). The data set is described as follows: Inhibition of other RTKs (IC50). The class given is biochemical.

Usually IC50 stands for the concentration needed to halve the response being measured. In general, Kd refers to the constant that tells how readily two partners part at equilibrium.

Read-outs that look alike come from different tables or passages of the source.

wild type FLT3 receptor in HL60, sequence (P36888 27-993): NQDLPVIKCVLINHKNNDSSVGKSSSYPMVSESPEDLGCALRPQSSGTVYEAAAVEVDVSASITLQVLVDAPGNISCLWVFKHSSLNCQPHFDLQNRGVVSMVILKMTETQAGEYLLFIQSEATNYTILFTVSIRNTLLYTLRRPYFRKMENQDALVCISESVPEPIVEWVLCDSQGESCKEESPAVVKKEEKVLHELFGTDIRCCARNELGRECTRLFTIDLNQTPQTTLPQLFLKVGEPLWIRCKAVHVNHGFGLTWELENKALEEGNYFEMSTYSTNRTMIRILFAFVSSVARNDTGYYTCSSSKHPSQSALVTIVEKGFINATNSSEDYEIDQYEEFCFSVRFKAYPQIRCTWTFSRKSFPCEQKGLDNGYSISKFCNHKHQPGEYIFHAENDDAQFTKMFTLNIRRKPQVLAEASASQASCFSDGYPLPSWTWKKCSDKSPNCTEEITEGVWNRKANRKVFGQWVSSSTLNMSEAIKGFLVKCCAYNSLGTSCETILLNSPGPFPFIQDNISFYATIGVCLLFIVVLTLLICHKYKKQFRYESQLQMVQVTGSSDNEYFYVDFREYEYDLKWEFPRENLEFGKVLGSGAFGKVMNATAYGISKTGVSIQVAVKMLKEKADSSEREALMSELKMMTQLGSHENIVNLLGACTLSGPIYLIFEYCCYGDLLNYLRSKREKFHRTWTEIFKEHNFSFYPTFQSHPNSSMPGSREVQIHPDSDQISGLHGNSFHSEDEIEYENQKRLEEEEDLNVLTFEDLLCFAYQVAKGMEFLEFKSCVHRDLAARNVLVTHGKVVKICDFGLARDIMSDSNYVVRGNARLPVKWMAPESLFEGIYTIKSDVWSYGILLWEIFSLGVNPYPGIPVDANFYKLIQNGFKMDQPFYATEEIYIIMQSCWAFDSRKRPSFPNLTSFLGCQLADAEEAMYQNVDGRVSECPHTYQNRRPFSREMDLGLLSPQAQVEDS
erbB2, sequence (P04626 23-1255, species assumed): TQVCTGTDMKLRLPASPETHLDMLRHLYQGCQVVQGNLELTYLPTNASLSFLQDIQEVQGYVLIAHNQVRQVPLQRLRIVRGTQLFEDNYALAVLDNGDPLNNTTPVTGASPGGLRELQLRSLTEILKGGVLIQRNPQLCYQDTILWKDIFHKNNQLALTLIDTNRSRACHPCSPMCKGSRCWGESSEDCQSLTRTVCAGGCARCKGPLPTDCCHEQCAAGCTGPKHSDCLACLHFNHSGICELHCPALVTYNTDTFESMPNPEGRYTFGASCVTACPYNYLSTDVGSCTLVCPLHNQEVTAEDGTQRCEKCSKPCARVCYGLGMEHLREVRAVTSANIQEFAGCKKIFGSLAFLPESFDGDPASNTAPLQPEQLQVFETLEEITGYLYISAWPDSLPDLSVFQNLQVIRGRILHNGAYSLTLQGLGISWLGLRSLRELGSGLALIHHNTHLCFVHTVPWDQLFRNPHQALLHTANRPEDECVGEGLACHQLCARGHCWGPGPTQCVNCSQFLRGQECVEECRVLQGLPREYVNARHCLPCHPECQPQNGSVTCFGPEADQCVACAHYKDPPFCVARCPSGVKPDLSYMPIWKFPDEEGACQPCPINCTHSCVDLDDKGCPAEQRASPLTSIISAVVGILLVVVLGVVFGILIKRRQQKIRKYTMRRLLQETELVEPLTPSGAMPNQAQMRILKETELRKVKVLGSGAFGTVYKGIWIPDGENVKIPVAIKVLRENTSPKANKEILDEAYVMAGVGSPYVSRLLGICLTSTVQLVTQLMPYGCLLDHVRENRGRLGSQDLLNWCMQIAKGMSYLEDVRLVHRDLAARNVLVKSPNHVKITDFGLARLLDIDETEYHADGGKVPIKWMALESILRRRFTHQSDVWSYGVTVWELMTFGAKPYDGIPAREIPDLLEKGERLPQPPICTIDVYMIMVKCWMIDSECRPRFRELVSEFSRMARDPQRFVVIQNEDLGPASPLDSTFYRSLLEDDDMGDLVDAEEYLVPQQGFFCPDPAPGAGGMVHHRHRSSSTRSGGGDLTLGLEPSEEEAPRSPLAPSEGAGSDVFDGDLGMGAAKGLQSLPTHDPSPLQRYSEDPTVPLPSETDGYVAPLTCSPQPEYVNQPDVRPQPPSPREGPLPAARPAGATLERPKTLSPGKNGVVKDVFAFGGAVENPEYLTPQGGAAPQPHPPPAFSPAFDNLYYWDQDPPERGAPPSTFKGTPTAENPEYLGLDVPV
VEGFR-2, sequence (P35968 20-1356, species assumed): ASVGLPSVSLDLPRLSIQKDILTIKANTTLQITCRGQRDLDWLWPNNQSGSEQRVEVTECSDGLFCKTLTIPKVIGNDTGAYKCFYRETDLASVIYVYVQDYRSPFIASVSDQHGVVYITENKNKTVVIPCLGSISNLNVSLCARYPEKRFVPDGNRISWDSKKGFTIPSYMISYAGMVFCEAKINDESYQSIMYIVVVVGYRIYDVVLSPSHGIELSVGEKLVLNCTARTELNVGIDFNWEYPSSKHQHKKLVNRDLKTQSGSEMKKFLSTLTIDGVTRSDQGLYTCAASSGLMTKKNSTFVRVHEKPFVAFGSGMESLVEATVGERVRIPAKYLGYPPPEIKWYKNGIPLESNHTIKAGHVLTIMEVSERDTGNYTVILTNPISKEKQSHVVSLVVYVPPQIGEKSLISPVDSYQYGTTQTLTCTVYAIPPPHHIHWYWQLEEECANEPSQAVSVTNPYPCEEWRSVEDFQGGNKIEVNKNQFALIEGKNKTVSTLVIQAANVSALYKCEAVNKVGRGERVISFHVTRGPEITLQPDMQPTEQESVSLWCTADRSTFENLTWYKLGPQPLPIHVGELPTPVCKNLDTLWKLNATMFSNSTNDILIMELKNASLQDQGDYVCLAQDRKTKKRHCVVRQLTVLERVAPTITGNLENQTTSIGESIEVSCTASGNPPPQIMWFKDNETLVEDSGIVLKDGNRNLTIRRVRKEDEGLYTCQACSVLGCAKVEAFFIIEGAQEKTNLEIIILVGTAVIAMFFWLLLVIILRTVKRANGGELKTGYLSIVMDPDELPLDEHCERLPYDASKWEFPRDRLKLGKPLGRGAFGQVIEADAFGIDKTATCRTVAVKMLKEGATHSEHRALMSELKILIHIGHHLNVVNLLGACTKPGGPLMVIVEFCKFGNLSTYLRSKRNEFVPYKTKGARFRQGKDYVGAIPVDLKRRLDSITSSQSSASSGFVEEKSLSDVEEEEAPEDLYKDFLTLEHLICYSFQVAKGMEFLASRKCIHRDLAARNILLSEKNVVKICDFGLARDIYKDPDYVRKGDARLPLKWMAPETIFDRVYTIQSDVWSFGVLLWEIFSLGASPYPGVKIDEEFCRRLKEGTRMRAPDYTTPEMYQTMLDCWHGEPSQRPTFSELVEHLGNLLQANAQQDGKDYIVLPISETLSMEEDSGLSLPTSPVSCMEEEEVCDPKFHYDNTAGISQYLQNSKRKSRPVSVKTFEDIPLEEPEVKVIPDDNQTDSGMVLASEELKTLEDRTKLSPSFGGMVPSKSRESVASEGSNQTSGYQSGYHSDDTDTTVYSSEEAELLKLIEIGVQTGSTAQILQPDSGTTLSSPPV
TIE-2, sequence (Q02763 23-1124, species assumed): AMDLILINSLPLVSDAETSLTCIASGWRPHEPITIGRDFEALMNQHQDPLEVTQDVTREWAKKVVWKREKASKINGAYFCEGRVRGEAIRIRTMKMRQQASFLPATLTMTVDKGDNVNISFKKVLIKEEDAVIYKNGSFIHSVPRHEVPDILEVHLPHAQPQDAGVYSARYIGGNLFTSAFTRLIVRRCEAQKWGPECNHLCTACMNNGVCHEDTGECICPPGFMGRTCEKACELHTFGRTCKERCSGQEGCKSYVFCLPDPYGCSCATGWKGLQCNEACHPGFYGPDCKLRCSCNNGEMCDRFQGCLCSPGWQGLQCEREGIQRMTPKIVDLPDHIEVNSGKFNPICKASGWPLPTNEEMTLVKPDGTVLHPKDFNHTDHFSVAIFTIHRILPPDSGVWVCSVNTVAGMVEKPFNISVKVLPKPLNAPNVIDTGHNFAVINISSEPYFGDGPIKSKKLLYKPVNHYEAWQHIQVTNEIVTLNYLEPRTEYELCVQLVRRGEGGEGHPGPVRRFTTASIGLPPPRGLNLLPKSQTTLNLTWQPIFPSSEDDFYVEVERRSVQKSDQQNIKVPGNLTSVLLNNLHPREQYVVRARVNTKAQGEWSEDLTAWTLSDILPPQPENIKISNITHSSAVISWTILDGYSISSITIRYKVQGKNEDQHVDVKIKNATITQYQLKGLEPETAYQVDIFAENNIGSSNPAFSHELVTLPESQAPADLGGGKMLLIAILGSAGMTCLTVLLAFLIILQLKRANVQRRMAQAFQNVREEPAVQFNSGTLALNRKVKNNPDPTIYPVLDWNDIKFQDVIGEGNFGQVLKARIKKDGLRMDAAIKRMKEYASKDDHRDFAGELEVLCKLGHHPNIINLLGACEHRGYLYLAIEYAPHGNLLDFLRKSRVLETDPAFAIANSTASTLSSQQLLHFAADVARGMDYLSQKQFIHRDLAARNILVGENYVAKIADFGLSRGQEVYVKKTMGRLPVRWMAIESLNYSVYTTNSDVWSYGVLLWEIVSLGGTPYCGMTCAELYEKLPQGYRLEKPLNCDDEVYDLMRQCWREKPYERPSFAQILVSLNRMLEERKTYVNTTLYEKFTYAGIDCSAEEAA

As to `CNC(=O)c1cc(Oc2ccc(NC(=O)Nc3ccc(Cl)c(C(F)(F)F)c3)cc2)ccn1` [Sorafenib, reference compound], the cytotoxic effect result in data set [1] was “ineffective”. Moreover, the “Percent Apoptosis” value in data set [2] (compound concentration 20 nM) was 13.07%; in [2] (compound concentration 50 nM), 30.21%; in data set [2] (compound concentration 100 nM) it was 44.09%.

For the molecule `CC1(COc2ccc3c(c2)ncn3-c2ccc3cccc(N4CCC(N)CC4)c3n2)COC1` [Crenolanib Besylate], the “MV-411-luciferase bone marrow infiltration compared to vehicle” value in [3] is “siginificantly suppressed”. In addition, the IC50 against Src was 4.98 µM; on VEGFR-2 it was 273 nM; at TIE-2, above 5.07 µM; in the data set with Ba/F3 D835N it was 3.93 nM; against EGFR, above 10 µM; against erbB2, above 10 µM. Besides, the IC50 in the data set on Ba/F3 D835Y is 6.38 nM; with Ba/F3 D835Y/ITD, 20.4 nM; at FGFR-2, above 5.07 µM. The Kd in data set [4] was 12 µM; at ABL1-nonphosphorylated, 600 nM; at ABL1-phosphorylated it was 88 nM; in data set [9], 760 nM. Further, the cytotoxicity entry in data set [5] is reported as “Cytotoxicity was observed in a dose dependent fashion”. In the data set on MV-411 FLT3 ITD cells, the “anti-leukemic effect of combination with cytarabine” value is listed as “Synergistic in vitro anti-leukemic effects”. Besides, the “cytotoxic response compared with sorafenib” value in [6] is reported as “greater cytotoxic response”. Also, in the data set with FLT3-ITD MV411 cells, the cytarabine accumulation entry is “does not decrease cytarabine accumulation”. In [7], the “inhibition of other known RTKs or serine/threonine kinases” value is reported as “does not inhibit”. In data set [8], the “phosphorylation inhibition of wild type FLT3 receptor” value is on record as “increased phosphorylation inhibition in a dose dependent fashion”. In addition, the cytotoxic effect entry in data set [1] was “induced a cytotoxic effect”. The “Percent Apoptosis” value is on record as 32.79% in data set [2] (compound concentration 20 nM), 44.99% in [2] (compound concentration 50 nM) and 51.17% in data set [2] (compound concentration 100 nM). The “cytotoxic response of Molm 14 cells compared to sorafenib” value in data set [2] (concentrations 20 nM to 100 nM) is given as “significantly higher as compared to sorafenib”.
